From ChEMBL document CHEMBL1201862, “PubChem BioAssay data set” (2004)
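Values below derive from 48-hour exposures of cells grown in 96-well plates, with endpoints linearly interpolated between the two concentrations bracketing the appropriate inhibition level. The concentration for 50% growth inhibition is given as GI50.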 The source made the active and inactive calls. No stated cut-off is given here; in the data, active = GI50 up to about 1.1 µM and inactive = higher.

Columns and labels:
Test in all cases: NCI anticancer screen, dose series, 48 h
[1] = test system: 786-0
[2] = test system: ACHN
[3] = test system: HCC 2998
[4] = test system: HOP-62
[5] = test system: HOP-92
[6] = test system: KM12
[7] = test system: LOX IMVI
[8] = test system: M14
[9] = test system: MOLT-4
[10] = test system: Malme-3M
[11] = test system: NCI-H226
[12] = test system: NCI-H23
[13] = test system: OVCAR-4
[14] = test system: OVCAR-5
[15] = test system: OVCAR-8
[16] = test system: RXF 393
[17] = test system: SK-MEL-28
[18] = test system: SN12C
[19] = test system: TK-10
[20] = test system: UACC-62

SMILES | GI50 [1] | GI50 [2] | GI50 [3] | GI50 [4] | GI50 [5] | GI50 [6] | GI50 [7] | GI50 [8] | GI50 [9] | GI50 [10] | GI50 [11] | GI50 [12] | GI50 [13] | GI50 [14] | GI50 [15] | GI50 [16] | GI50 [17] | GI50 [18] | GI50 [19] | GI50 [20]
N=C1N=C(N)c2cc3c(cc21)SCCSCCCSCCS3 | 14.2 µM (inactive) | 12.9 µM (inactive) | 9.62 µM (inactive) | 13.6 µM (inactive) | 23.1 µM (inactive) | 11.9 µM (inactive) | 4.38 µM (inactive) | 16.6 µM (inactive) | 10.2 µM (inactive) | 20.5 µM (inactive) | 20.5 µM (inactive) | 11.3 µM (inactive) | 19.8 µM (inactive) | 18.4 µM (inactive) | 18 µM (inactive) | 15.8 µM (inactive) | 14.6 µM (inactive) | 14.6 µM (inactive) | 15.1 µM (inactive) | 22 µM (inactive)
N=C(N)N/N=C/c1c(Cl)nc2n1CCS2 | 49.4 µM (inactive) | 54.7 µM (inactive) | 45.3 µM (inactive) | 38.1 µM (inactive) | 70.3 µM (inactive) | 34.8 µM (inactive) | > 100 µM (inactive) | 56.4 µM (inactive) | 46.8 µM (inactive) | > 100 µM (inactive) | > 100 µM (inactive) | 96.2 µM (inactive) | > 100 µM (inactive) | 76.9 µM (inactive) | > 100 µM (inactive) | 22.5 µM (inactive) | > 100 µM (inactive) | 62.5 µM (inactive) | > 100 µM (inactive) | > 100 µM (inactive)
C=C1C(=O)CC2C(=O)C(C)(O)CC/C=C(\C)C(=O)CC12 (stereo not given) | 16.1 µM (inactive) | 10.2 µM (inactive) | > 100 µM (inactive) | > 78.9 µM (inactive) | 23.6 µM (inactive) | 32.6 µM (inactive) | 16.3 µM (inactive) | 16.4 µM (inactive) | 4.14 µM (inactive) | 11.7 µM (inactive) | 6.07 µM (inactive) | 16.9 µM (inactive) | 37.6 µM (inactive) | 20.7 µM (inactive) | 20.1 µM (inactive) | 14.4 µM (inactive) | 24.3 µM (inactive) | 15.2 µM (inactive) | 12.7 µM (inactive) | 30.3 µM (inactive)
COc1ccc(/C=N/N=C(\N)NO)cc1F | 13.7 µM (inactive) | 10.1 µM (inactive) | 11.4 µM (inactive) | 20.5 µM (inactive) | 22.2 µM (inactive) | 29.4 µM (inactive) | 10.4 µM (inactive) | 14.2 µM (inactive) | 31.1 µM (inactive) | 31 µM (inactive) | 5.42 µM (inactive) | 29.9 µM (inactive) | 7.45 µM (inactive) | 13.9 µM (inactive) | 25.9 µM (inactive) | 38.2 µM (inactive) | > 100 µM (inactive) | 26.7 µM (inactive) | 43 µM (inactive) | 12.9 µM (inactive)
CCCCSC1=N/C(=C\c2ccccc2O)C(=O)N1 | 69.7 µM (inactive) | 40.3 µM (inactive) | 53.2 µM (inactive) | > 100 µM (inactive) | 44 µM (inactive) | 49.8 µM (inactive) | 84.3 µM (inactive) | 71.6 µM (inactive) | 68.9 µM (inactive) | > 100 µM (inactive) | > 100 µM (inactive) | 42.7 µM (inactive) | 66.1 µM (inactive) | > 100 µM (inactive) | > 100 µM (inactive) | 50.5 µM (inactive) | > 100 µM (inactive) | 79.1 µM (inactive) | 76.9 µM (inactive) | 44.3 µM (inactive)
CCOC(=O)/N=c1\ss/c(=N\C(=S)N(C)C)n1-c1ccccc1 | 14.6 µM (inactive) | 52.1 µM (inactive) | > 10 µM (inactive) | 42.5 µM (inactive) | 25.8 µM (inactive) | 8.63 µM (inactive) | > 100 µM (inactive) | > 10 µM (inactive) | 4.27 µM (inactive) | > 10 µM (inactive) | > 10 µM (inactive) | 67.5 µM (inactive) | 2.16 µM (inactive) | > 100 µM (inactive) | > 10 µM (inactive) | 1.07 µM (active) | 1.82 µM (inactive) | > 10 µM (inactive) | 63 µM (inactive) | 72.3 µM (inactive)
CC1(C)O[C@H]2OC3CCC(=O)CC3(O)[C@H]2O1 (stereo not given in full) | > 100 µM (inactive) | > 100 µM (inactive) | > 100 µM (inactive) | > 100 µM (inactive) | > 73.3 µM (inactive) | > 100 µM (inactive) | > 100 µM (inactive) | > 100 µM (inactive) | > 100 µM (inactive) | > 51.6 µM (inactive) | > 100 µM (inactive) | > 100 µM (inactive) | > 100 µM (inactive) | > 100 µM (inactive) | > 100 µM (inactive) | > 100 µM (inactive) | > 100 µM (inactive) | > 100 µM (inactive) | > 100 µM (inactive) | > 100 µM (inactive)
CN(C)C(=N/O)/C(=N\O)N(C)C | > 100 µM (inactive) | > 100 µM (inactive) | > 100 µM (inactive) | > 100 µM (inactive) | > 100 µM (inactive) | > 100 µM (inactive) | > 100 µM (inactive) | > 100 µM (inactive) | > 100 µM (inactive) | > 100 µM (inactive) | 15.6 µM (inactive) | > 100 µM (inactive) | > 100 µM (inactive) | > 100 µM (inactive) | > 100 µM (inactive) | > 100 µM (inactive) | > 100 µM (inactive) | > 100 µM (inactive) | > 100 µM (inactive) | > 100 µM (inactive)
O=C1c2ccccc2C(=O)c2c1oc(=O)c1ccccc21 | 5.35 µM (inactive) | 4.59 µM (inactive) | 3.21 µM (inactive) | 8.13 µM (inactive) | 5.16 µM (inactive) | 5.51 µM (inactive) | 3.65 µM (inactive) | 6.05 µM (inactive) | 3.79 µM (inactive) | 2.63 µM (inactive) | 8.93 µM (inactive) | 4.23 µM (inactive) | 1.08 µM (active) | 6.03 µM (inactive) | 2 µM (inactive) | 4.48 µM (inactive) | 6.5 µM (inactive) | 3.49 µM (inactive) | 8.89 µM (inactive) | 4 µM (inactive)
CC(=O)CC(=O)N1CCOC1=O | > 10 µM (inactive) | > 10 µM (inactive) | > 10 µM (inactive) | > 10 µM (inactive) | > 10 µM (inactive) | > 10 µM (inactive) | > 10 µM (inactive) | > 10 µM (inactive) | > 10 µM (inactive) | > 10 µM (inactive) | > 10 µM (inactive) | > 10 µM (inactive) | > 10 µM (inactive) | > 10 µM (inactive) | > 10 µM (inactive) | > 10 µM (inactive) | > 10 µM (inactive) | > 10 µM (inactive) | > 10 µM (inactive) | > 10 µM (inactive)
NCCCC[C@H](N)C(=O)Nc1ccc(-c2nc3ccccc3s2)cc1 | 18.1 µM (inactive) | 20.3 µM (inactive) | 26.7 µM (inactive) | 25.1 µM (inactive) | 34.7 µM (inactive) | 18.5 µM (inactive) | 24.8 µM (inactive) | 12.6 µM (inactive) | 16.2 µM (inactive) | 19.4 µM (inactive) | 25.6 µM (inactive) | 25.6 µM (inactive) | 36.2 µM (inactive) | 14.9 µM (inactive) | 19.8 µM (inactive) | 33.2 µM (inactive) | 19.7 µM (inactive) | 24.8 µM (inactive) | 57.7 µM (inactive) | 21.7 µM (inactive)
CCO[C@@H]1C2C=CC(C2)[C@H]1[N+](=O)[O-] (stereo not given in full) | > 100 µM (inactive) | > 100 µM (inactive) | > 100 µM (inactive) | > 100 µM (inactive) | > 100 µM (inactive) | > 100 µM (inactive) | > 100 µM (inactive) | > 100 µM (inactive) | > 100 µM (inactive) | > 100 µM (inactive) | > 100 µM (inactive) | > 100 µM (inactive) | > 100 µM (inactive) | > 100 µM (inactive) | > 100 µM (inactive) | > 100 µM (inactive) | > 100 µM (inactive) | > 100 µM (inactive) | > 100 µM (inactive) | > 100 µM (inactive)
COc1ccc(OC)c(C[P+](c2ccccc2)(c2ccccc2)c2ccccc2)c1 | 3.38 µM (inactive) | 4.8 µM (inactive) | 3.54 µM (inactive) | 3.77 µM (inactive) | 0.792 µM (active) | 1.11 µM (active) | 0.968 µM (active) | 2.42 µM (inactive) | 3.42 µM (inactive) | 5.56 µM (inactive) | 4.84 µM (inactive) | 2.1 µM (inactive) | 4.01 µM (inactive) | 5.27 µM (inactive) | 2.08 µM (inactive) | 4.68 µM (inactive) | 3.26 µM (inactive) | 5.89 µM (inactive) | 2.7 µM (inactive) | 0.971 µM (active)
Nc1ccn(C2CCC(COP(=O)(O)OCC(O)COP(=O)(O)OCC3OC(n4cc(F)c(=O)[nH]c4=O)CC3O)O2)c(=O)n1 (stereo not given) | > 76.4 µM (inactive) | < 0.0106 µM (active) | 0.656 µM (active) | 0.232 µM (active) | 0.0419 µM (active) | > 38.1 µM (inactive) | < 0.0149 µM (active) | 0.473 µM (active) | 0.102 µM (active) | > 53.8 µM (inactive) | > 100 µM (inactive) | 0.139 µM (active) | > 23.7 µM (inactive) | 9.93 µM (inactive) | 0.157 µM (active) | 3.33 µM (inactive) | 26.4 µM (inactive) | 0.135 µM (active) | 5.14 µM (inactive) | 0.136 µM (active)
